For assay [1], the system named is Staphylococcus aureus 6538 P. Kind of assay: Study of the association by the checkerboard method on microplate (CMI in association, FiC, FiC Index). It is filed as cell-based. The following applies: for FiC: CMI of the product in association / CMI of the product alone. As for the experimental part: • . souche: Staphylococcus aureus 6538 P • milieu de culture : • . bouillon et gélose trypticase soja (Biomérieux) • . bouillon Trypticase soja + 10% Tween 80. • appareillage : • . microplaques stériles Nunc R Nunclon à 96 puits • . eau distillée stérile • . tubes à essais stériles • . étuve à 32°C (Jouan) • . spectrophotomètre PRIM et cuves adaptées • . billes de verres stériles • produits : Les solutions-mères des produits cités ci-dessous ont été préparés comme suit : • . Zn SO 4: solution aqueuse à 5% • . n-octanoyl-glycine : solution à 1% dans 30% butylène glycol puis chauffage jusqu'à dissolution homogène. • méthodes : • CMI : Concentration Minimale Inhibitrice Une distribution de 100 µl de bouillon Trypticase soja est réalisée dans chaque cupule de la microplaque stérile A. Une distribution de 100 µl des différents produits a lieu dans une cupule (on est alors à 50% d'actif) (une cupule par produit). Une série de dilutions sériées au demi est ensuite réalisée sur microplaque. Un témoin stérilité du milieu et un autre témoin de la vigueur de la souche sont réalisés en parallèle sur la microplaque. L'ensemencement de la microplaque (A) a lieu sous la hotte après préparation de l'inoculum bactérien comme suit : Les souches ayant été préalablement repiquées la veille sur gélose Trypticase soja, un inoculum 10^8 germes/ml est dispersé dans l'eau distillée stérile puis agité au vortex. Les billes de verre assurant une bonne dispersion des souches, la mesure de la densité optique permet de préparer un inoculum adéquat par rapport à un étalonnage pré-établi et validé. La répartition de la souche a lieu dans une deuxième microplaque (B) stérile par distribution de 100 µl d'inoculum par microcupule. L'ensemencement a lieu par un repiquage de la microplaque (B) vers la microplaque (A), il se réalise ainsi une dilution au 1/100 de l'inoculum : la microplaque A contenant alors 10^6 germes par ml, peut être mise à l'étuve 24 h à 32°C. […]

For assay [2], the system named is Staphylococcus aureus 6538 P. Kind of assay: Minimal inhibitory concentration (CMI), serial half dilutions in broth on microplate. The following applies: product alone; 24 h at 32°C; 10^6 germes par ml. It is filed as cell-based. The protocol: • . souche: Staphylococcus aureus 6538 P • milieu de culture : • . bouillon et gélose trypticase soja (Biomérieux) • . bouillon Trypticase soja + 10% Tween 80. • appareillage : • . microplaques stériles Nunc R Nunclon à 96 puits • . eau distillée stérile • . tubes à essais stériles • . étuve à 32°C (Jouan) • . spectrophotomètre PRIM et cuves adaptées • . billes de verres stériles • produits : Les solutions-mères des produits cités ci-dessous ont été préparés comme suit : • . Zn SO 4: solution aqueuse à 5% • . n-octanoyl-glycine : solution à 1% dans 30% butylène glycol puis chauffage jusqu'à dissolution homogène. • méthodes : • CMI : Concentration Minimale Inhibitrice Une distribution de 100 µl de bouillon Trypticase soja est réalisée dans chaque cupule de la microplaque stérile A. Une distribution de 100 µl des différents produits a lieu dans une cupule (on est alors à 50% d'actif) (une cupule par produit). Une série de dilutions sériées au demi est ensuite réalisée sur microplaque. Un témoin stérilité du milieu et un autre témoin de la vigueur de la souche sont réalisés en parallèle sur la microplaque. […]

As to `O=S(=O)([O-])[O-].[Zn+2]` [Zn SO 4, sulfate de zinc], the FiC in assay [1] is recorded as 0,20. The “CMI Associés” value in assay [1] (product in association (checkerboard), incubation at 32°C) is 0,03. For the same compound, the “CMI Seuls” value in assay [2] is listed as 0,15.

On to `CCCCCCCC(=O)NCC(=O)O` [n octanoyl glycine, n-octanoyl-glycine], for which, in assay [1], the FiC is listed as 0,5. Further, the “CMI Seuls” value in assay [2] is recorded as 0,25.

The record behind these values is patent EP0869800B1, “ACYLGLYCINE- AND ZINC SALT-BASED ANTIBACTERIAL COMPOUND” (PIERRE FABRE DERMO-COSMETIQUE, priority 1995, dated 1997).
